For six compounds, IC50 results are on record in ChEMBL document CHEMBL3608278 (J Med Chem, 2015).

Structures are written as SMILES. A value given as a limit tells only on which side of the number the result lay.

Test [1] deals with T1, Potassium voltage-gated channel subfamily A member 3 (Homo sapiens, UniProt P22001). The experiment in a line: cell-based. The arrangement: species or system Blood.
For test [2], the target named is T1, Potassium voltage-gated channel subfamily A member 3. The test is classed as cell-based, CHO-K1.
For test [3] the target is unchanged. The arrangement: species or system Blood.

T1 sequence (P22001 whole entry): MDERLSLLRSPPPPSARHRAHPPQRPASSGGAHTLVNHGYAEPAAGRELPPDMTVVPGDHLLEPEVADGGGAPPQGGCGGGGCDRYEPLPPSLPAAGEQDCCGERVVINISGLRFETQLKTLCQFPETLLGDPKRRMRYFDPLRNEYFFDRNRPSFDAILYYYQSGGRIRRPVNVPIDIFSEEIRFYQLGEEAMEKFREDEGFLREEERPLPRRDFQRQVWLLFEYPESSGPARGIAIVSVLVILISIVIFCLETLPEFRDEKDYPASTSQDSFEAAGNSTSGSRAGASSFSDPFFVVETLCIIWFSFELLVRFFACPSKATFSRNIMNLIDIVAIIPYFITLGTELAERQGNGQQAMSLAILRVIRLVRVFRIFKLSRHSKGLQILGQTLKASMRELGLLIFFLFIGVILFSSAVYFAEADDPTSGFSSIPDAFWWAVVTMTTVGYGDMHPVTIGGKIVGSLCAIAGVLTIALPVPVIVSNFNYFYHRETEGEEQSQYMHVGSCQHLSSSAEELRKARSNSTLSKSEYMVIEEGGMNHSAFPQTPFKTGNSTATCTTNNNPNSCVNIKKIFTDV

Turning to `CC[C@H](C)[C@@H]1NC(=O)[C@@H](NC(=O)[C@H](CO)NC(=O)[C@@H](N)CCCNC(=N)N)CSSC[C@@H](C(=O)O)NC(=O)[C@H]([C@@H](C)O)NC(=O)CNC(=O)[C@@H]2CSSC[C@@H]3NC(=O)[C@H](CCC(N)=O)NC(=O)[C@H](Cc4ccccc4)NC(=O)[C@H](C)NC(=O)[C@H]([C@@H](C)O)NC(=O)[C@H](CSSC[C@H](NC(=O)[C@H](Cc4ccccc4)NC(=O)[C@H](CO)NC(=O)[C@H](CC(C)C)NC(=O)[C@H](CCCNC(=N)N)NC(=O)[C@H](Cc4ccc(O)cc4)NC(=O)[C@H](CCCCN)NC(=O)[C@H](CCSC)NC(=O)[C@H](CO)NC(=O)[C@H](Cc4cnc[nH]4)NC(=O)[C@H](CCCCN)NC3=O)C(=O)N[C@@H](CCCNC(=N)N)C(=O)N[C@@H](CCCCN)C(=O)N[C@@H]([C@@H](C)O)C(=O)N2)NC(=O)[C@H](CCCNC(=N)N)NC(=O)[C@H](CO)NC(=O)[C@H](CCCCN)NC(=O)[C@@H]2CCCN2C(=O)[C@H]([C@@H](C)CC)NC(=O)[C@H]([C@@H](C)O)NC(=O)[C@H](CCC(=O)O)NC1=O`, the IC50 is 16.9 nM in test [1], greater than 3.33 nM in test [2] and greater than 24.6 nM in test [3].

For the compound `CC[C@H](C)[C@@H]1NC(=O)[C@@H](NC(=O)[C@H](CO)NC(=O)[C@@H](N)CCCNC(=N)N)CSSC[C@@H](C(=O)O)NC(=O)[C@H]([C@@H](C)O)NC(=O)CNC(=O)[C@@H]2CSSC[C@@H]3NC(=O)[C@H](CCC(N)=O)NC(=O)[C@H](Cc4ccccc4)NC(=O)[C@H](C)NC(=O)[C@H]([C@@H](C)O)NC(=O)[C@H](CSSC[C@H](NC(=O)[C@H](Cc4ccccc4)NC(=O)[C@H](CO)NC(=O)[C@H](CC(C)C)NC(=O)[C@H](CCCNC(=N)N)NC(=O)[C@H](Cc4ccc(O)cc4)NC(=O)[C@H](CCCCN)NC(=O)[C@H](CCSC)NC(=O)[C@H](CO)NC(=O)[C@H](Cc4cnc[nH]4)NC(=O)[C@H](CCCCN)NC3=O)C(=O)N[C@@H](CCCNC(=N)N)C(=O)N[C@@H](CCCCN)C(=O)N[C@@H]([C@@H](C)O)C(=O)N2)NC(=O)[C@H](CCCNC(=N)N)NC(=O)[C@H](CO)NC(=O)[C@H](CCCCN)NC(=O)[C@@H]2CCCN2C(=O)[C@H](CCC(=O)O)NC(=O)[C@H]([C@@H](C)O)NC(=O)[C@H](CC(=O)O)NC1=O`, the 50% inhibitory concentration (IC50) in test [1] was 5 nM; in test [2], 1.31 nM; in test [3], 19.5 nM.

Turning to `CC[C@H](C)[C@@H]1NC(=O)[C@@H](NC(=O)[C@H](CO)NC(=O)[C@@H](N)CCCNC(=N)N)CSSC[C@@H](C(=O)O)NC(=O)[C@H]([C@@H](C)O)NC(=O)CNC(=O)[C@@H]2CSSC[C@@H]3NC(=O)[C@H](CCC(N)=O)NC(=O)[C@H](Cc4ccccc4)NC(=O)[C@H](C)NC(=O)[C@H]([C@@H](C)O)NC(=O)[C@H](CSSC[C@H](NC(=O)[C@H](Cc4ccccc4)NC(=O)[C@H](CO)NC(=O)[C@H](CC(C)C)NC(=O)[C@H](CCCNC(=N)N)NC(=O)[C@H](Cc4ccc(O)cc4)NC(=O)[C@H](CCCCN)NC(=O)[C@H](CCSC)NC(=O)[C@H](CO)NC(=O)[C@H](Cc4cnc[nH]4)NC(=O)[C@H](CCCCN)NC3=O)C(=O)N[C@@H](CCCNC(=N)N)C(=O)N[C@@H](CCCCN)C(=O)N[C@@H]([C@@H](C)O)C(=O)N2)NC(=O)[C@H](CCCNC(=N)N)NC(=O)[C@H](CO)NC(=O)[C@H](CCC(=O)O)NC(=O)[C@@H]2CCCN2C(=O)[C@H]([C@@H](C)CC)NC(=O)[C@H]([C@@H](C)O)NC(=O)[C@H](CC(=O)O)NC1=O`, the 50% inhibitory concentration (IC50) was 0.037 nM in test [1], 0.146 nM in test [2] and 0.056 nM in test [3].

As for `CC[C@H](C)[C@@H]1NC(=O)[C@@H](NC(=O)[C@H](CO)NC(=O)[C@@H](N)CCCNC(=N)N)CSSC[C@@H](C(=O)O)NC(=O)[C@H]([C@@H](C)O)NC(=O)CNC(=O)[C@@H]2CSSC[C@@H]3NC(=O)[C@H](CCC(N)=O)NC(=O)[C@H](Cc4ccccc4)NC(=O)[C@H](C)NC(=O)[C@H]([C@@H](C)O)NC(=O)[C@H](CSSC[C@H](NC(=O)[C@H](Cc4ccccc4)NC(=O)[C@H](CO)NC(=O)[C@H](CC(C)C)NC(=O)[C@H](CCCNC(=N)N)NC(=O)[C@H](Cc4ccc(O)cc4)NC(=O)[C@H](CCCCN)NC(=O)[C@H](CCSC)NC(=O)[C@H](CO)NC(=O)[C@H](Cc4cnc[nH]4)NC(=O)[C@H](CCCCN)NC3=O)C(=O)N[C@@H](CCCNC(=N)N)C(=O)N[C@@H](CCCCN)C(=O)N[C@@H]([C@@H](C)O)C(=O)N2)NC(=O)[C@H](CCC(=O)O)NC(=O)[C@H](CO)NC(=O)[C@H](CCCCN)NC(=O)[C@@H]2CCCN2C(=O)[C@H]([C@@H](C)CC)NC(=O)[C@H]([C@@H](C)O)NC(=O)[C@H](CC(=O)O)NC1=O`, the results for the half-inhibitory concentration (IC50) in test [1], in test [2] and in test [3] were 1.32 nM, 0.983 nM and 4.54 nM, respectively.

Regarding `CC[C@H](C)[C@@H]1NC(=O)[C@@H](NC(=O)[C@H](CO)NC(=O)[C@@H](N)CCCNC(=N)N)CSSC[C@@H](C(=O)O)NC(=O)[C@H]([C@@H](C)O)NC(=O)CNC(=O)[C@@H]2CSSC[C@@H]3NC(=O)[C@H](CCC(N)=O)NC(=O)[C@H](Cc4ccccc4)NC(=O)[C@H](C)NC(=O)[C@H](CCC(=O)O)NC(=O)[C@H](CSSC[C@H](NC(=O)[C@H](Cc4ccccc4)NC(=O)[C@H](CO)NC(=O)[C@H](CC(C)C)NC(=O)[C@H](CCCNC(=N)N)NC(=O)[C@H](Cc4ccc(O)cc4)NC(=O)[C@H](CCCCN)NC(=O)[C@H](CCSC)NC(=O)[C@H](CO)NC(=O)[C@H](Cc4cnc[nH]4)NC(=O)[C@H](CCCCN)NC3=O)C(=O)N[C@@H](CCCNC(=N)N)C(=O)N[C@@H](CCCCN)C(=O)N[C@@H]([C@@H](C)O)C(=O)N2)NC(=O)[C@H](CCCNC(=N)N)NC(=O)[C@H](CO)NC(=O)[C@H](CCCCN)NC(=O)[C@@H]2CCCN2C(=O)[C@H]([C@@H](C)CC)NC(=O)[C@H]([C@@H](C)O)NC(=O)[C@H](CC(=O)O)NC1=O`, the half-maximal inhibitory concentration (IC50) in test [1] is 0.785 nM; in test [2], 0.152 nM; in test [3], 1.1 nM.

Consider `CC[C@H](C)[C@@H]1NC(=O)[C@@H](NC(=O)[C@H](CO)NC(=O)[C@@H](N)CCCNC(=N)N)CSSC[C@@H](C(=O)O)NC(=O)[C@H]([C@@H](C)O)NC(=O)CNC(=O)[C@@H]2CSSC[C@@H]3NC(=O)[C@H](CCC(=O)O)NC(=O)[C@H](Cc4ccccc4)NC(=O)[C@H](C)NC(=O)[C@H]([C@@H](C)O)NC(=O)[C@H](CSSC[C@H](NC(=O)[C@H](Cc4ccccc4)NC(=O)[C@H](CO)NC(=O)[C@H](CC(C)C)NC(=O)[C@H](CCCNC(=N)N)NC(=O)[C@H](Cc4ccc(O)cc4)NC(=O)[C@H](CCCCN)NC(=O)[C@H](CCSC)NC(=O)[C@H](CO)NC(=O)[C@H](Cc4cnc[nH]4)NC(=O)[C@H](CCCCN)NC3=O)C(=O)N[C@@H](CCCNC(=N)N)C(=O)N[C@@H](CCCCN)C(=O)N[C@@H]([C@@H](C)O)C(=O)N2)NC(=O)[C@H](CCCNC(=N)N)NC(=O)[C@H](CO)NC(=O)[C@H](CCCCN)NC(=O)[C@@H]2CCCN2C(=O)[C@H]([C@@H](C)CC)NC(=O)[C@H]([C@@H](C)O)NC(=O)[C@H](CC(=O)O)NC1=O`, for which the concentration for half-maximal inhibition (IC50) in test [1] worked out at 0.352 nM; in test [2], 0.197 nM; in test [3], 0.373 nM.

A word on the IC50: it is the midpoint of a concentration-inhibition curve. Lower therefore signals higher potency.
